Earlier results as cited in patent US10273243B2, “4-phenylpiperidines, their preparation and use” (The Trustees of Columbia University in the City of New York, priority 2013, dated 2019).

Columns and labels:
Abca4−/− mice = settings: animal model of excessive bisretinoid accumulation; cited from earlier work
[1] = cited from earlier work
RBP4 = RBP4 (Homo sapiens, UniProt P02753); settings: cited from earlier work
RBP4-TTR interaction = settings: cited from earlier work
[2] = system: retinal pigment epithelium cells; settings: many cell types, including the retinal pigment epithelium cells; cited from earlier work
serum RBP4 and retinol = settings: in vivo; cited from earlier work

Compound: CC1=C(/C=C/C(C)=C/C=C/C(C)=C/C(=O)Nc2ccc(O)cc2)C(C)(C)CCC1 [fenretinide, N-(4-hydroxy-phenyl)retinamide]
- A2E production (Abca4−/− mice): reduced A2E production
- formation of hemangiosarcomas ([1]; mice): stimulate formation of hemangiosarcomas
- selectivity and toxicity ([1]; mouse, in vivo): non-selective and toxic
- teratogenicity ([1]; mouse, in vivo): teratogenic
- binding to RBP4 (RBP4): bind to RBP4
- displacement of all-trans retinol from RBP4 (RBP4): displace all-trans retinol from RBP4
- disruption of RBP4-TTR interaction (RBP4-TTR interaction): disrupt the RBP4-TTR interaction
- induction of apoptosis [2]: extremely active inducer of apoptosis
- ocular all-trans retinol uptake (serum RBP4 and retinol): inhibit ocular all-trans retinol uptake
- serum RBP4 and retinol (serum RBP4 and retinol): reduce serum RBP4 and retinol
- visual cycle (serum RBP4 and retinol): slow down the visual cycle
